According to patent publication US20220380319A1 (Bial - R&D Investments, S.A., priority 2019, published 2022):
Converted amounts (≈) assume the structure as drawn.

Key:
[1] = biological target: T1, acid ceramidase (Homo sapiens, UniProt Q13510); experiment: Acid ceramidase inhibition, biochemical fluorescent assay with cell lysates overexpressing acid ceramidase, substrate Rbm14-12; conditions: substrate Rbm14-12 6.3 μM
T1 construct: Cell lysates overexpressing acid ceramidase were used as the enzyme source; expressed in transfected cells
T1 sequence (Q13510 22-395): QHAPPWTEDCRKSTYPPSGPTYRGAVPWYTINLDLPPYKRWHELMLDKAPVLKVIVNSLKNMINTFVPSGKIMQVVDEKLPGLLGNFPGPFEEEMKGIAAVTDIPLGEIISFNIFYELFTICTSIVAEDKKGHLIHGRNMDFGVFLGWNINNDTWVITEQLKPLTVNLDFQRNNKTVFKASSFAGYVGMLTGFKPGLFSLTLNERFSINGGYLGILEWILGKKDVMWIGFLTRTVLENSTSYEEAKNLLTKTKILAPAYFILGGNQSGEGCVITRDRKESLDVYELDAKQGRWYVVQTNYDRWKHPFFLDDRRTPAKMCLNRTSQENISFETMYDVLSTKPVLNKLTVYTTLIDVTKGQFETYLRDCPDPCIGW
Method in brief: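 Lysate of cells overexpressing acid ceramidase (10 μg protein) preincubated with compound dose series 1 hr at RT in 25 mM NaAC, 100 mM NaCl, pH 4.5, then reacted 1 hr with 6.3 μM Rbm14-12. Stopped with NaIO4/glycine buffer pH 10.6, fluorescence ex360/em446; IC50 by four-parameter fit.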

[2] = Compound solubility in water
[3] = pH 4.5, 1 hr preincubation at RT

IC50 ([1]; pH 4.5)	solubility [2]	IC50 [1, 3]	SMILES
> 1000 nM	33 µg/mL (≈ 74.6 µM)		COc1nc2cc(N3CCN(C4CN(C)C4)CC3)c(F)cc2n1C(=O)NCC#CC(C)C [Example 320a, 6-Fluoro-2-methoxy-5-(4-(1-methylazetidin-3-yl)piperazin-1-yl)-N-(4-methylpent-2-yn-1-yl)-1H-benzo[d]imidazole-1-carboxamide]
200 to 1000 nM	42 µg/mL (≈ 94.9 µM)		COc1nc2cc(F)c(N3CCN(C4CN(C)C4)CC3)cc2n1C(=O)NCC#CC(C)C [Example 320b, 5-fluoro-2-methoxy-6-(4-(1-methylazetidin-3-yl)piperazin-1-yl)-N-(4-methylpent-2-yn-1-yl)-1H-benzo[d]imidazole-1-carboxamide]
200 to 1000 nM	2 µg/mL (≈ 5.34 µM)		COc1nc2cc(N3CCOCC3)c(F)cc2n1C(=O)NCC#CC(C)C [Example 321a, 6-Fluoro-2-methoxy-N-(4-methylpent-2-yn-1-yl)-5-morpholino-1H-benzo[d]imidazole-1-carboxamide]
200 to 1000 nM	3 µg/mL (≈ 8.01 µM)		COc1nc2cc(F)c(N3CCOCC3)cc2n1C(=O)NCC#CC(C)C [Example 321b, 5-fluoro-2-methoxy-N-(4-methylpent-2-yn-1-yl)-6-morpholino-1H-benzo[d]imidazole-1-carboxamide]
200 to 1000 nM	22 µg/mL (≈ 54.5 µM)		COc1nc2c(N3CCN(C)CC3)cccc2n1C(=O)NCC#Cc1ccccc1 [Example 322, 2-Methoxy-4-(4-methylpiperazin-1-yl)-N-(3-phenylprop-2-yn-1-yl)-1H-benzo[d]imidazole-1-carboxamide]
< 200 nM	16 µg/mL (≈ 44 µM)		Cc1ccc(CNC(=O)n2cnc3c(N4CCN(C)CC4)cccc32)cc1 [Example 323, N-(4-Methylbenzyl)-4-(4-methylpiperazin-1-yl)-1H-benzo[d]imidazole-1-carboxamide]
200 to 1000 nM	11 µg/mL (≈ 30.3 µM)		CN1CCN(c2cccc3c2ncn3C(=O)NCCc2ccccc2)CC1 [Example 324, 4-(4-Methylpiperazin-1-yl)-N-phenethyl-1H-benzo[d]imidazole-1-carboxamide]
< 200 nM	32 µg/mL (≈ 76.5 µM)		CN1CC(N2CCN(c3cccc4c3ncn4C(=O)NCCc3ccccc3)CC2)C1 [Example 325, 4-(4-(1-Methylazetidin-3-yl)piperazin-1-yl)-N-phenethyl-1H-benzo[d]imidazole-1-carboxamide]
< 200 nM	21 µg/mL (≈ 51.8 µM)		O=C(NCCc1ccccc1)n1cnc2c(N3CCN(C4COC4)CC3)cccc21 [Example 326, 4-(4-(Oxetan-3-yl)piperazin-1-yl)-N-phenethyl-1H-benzo[d]imidazole-1-carboxamide]
< 200 nM	25 µg/mL (≈ 59.3 µM)		O=C(NCCOc1ccccc1)n1cnc2c(N3CCN(C4COC4)CC3)cccc21 [Example 327, 4-(4-(Oxetan-3-yl)piperazin-1-yl)-N-(2-phenoxyethyl)-1H-benzo[d]imidazole-1-carboxamide]
< 200 nM	41 µg/mL (≈ 91.8 µM)		CN1CC(N2CC3CC2CN3c2cccc3c2ncn3C(=O)NCCOc2ccccc2)C1 (stereo not shown) [Example 328, 4-(5-(1-Methylazetidin-3-yl)-2,5-diazabicyclo[2.2.1]heptan-2-yl)-N-(2-phenoxyethyl)-1H-benzo[d]imidazole-1-carboxamide]
> 1000 nM	38 µg/mL (≈ 81.8 µM)		COc1nc2c(N3CC(N4CCN(C)CC4)C3)cccc2n1C(=O)NCCOc1ccccc1 [Example 329, 2-Methoxy-4-(3-(4-methylpiperazin-1-yl)azetidin-1-yl)-N-(2-phenoxyethyl)-1H-benzo[d]imidazole-1-carboxamide]
< 200 nM	38 µg/mL (≈ 96.6 µM)		CN(C)CC1CN(c2cccc3c2ncn3C(=O)NCCOc2ccccc2)C1 [Example 330, 4-(3-((Dimethylamino)methyl)azetidin-1-yl)-N-(2-phenoxyethyl)-1H-benzo[d]imidazole-1-carboxamide]
< 200 nM	22 µg/mL (≈ 56.8 µM)		CN(C)CC1CN(c2cccc3c2ncn3C(=O)NCC#Cc2ccccc2)C1 [Example 331, 4-(3-((Dimethylamino)methyl)azetidin-1-yl)-N-(3-phenylprop-2-yn-1-yl)-1H-benzo[d]imidazole-1-carboxamide]
< 200 nM	24 µg/mL (≈ 56 µM)		CN1CCN(C2CN(c3cccc4c3ncn4C(=O)NCC#Cc3ccccc3)C2)CC1 [Example 332, 4-(3-(4-Methylpiperazin-1-yl)azetidin-1-yl)-N-(3-phenylprop-2-yn-1-yl)-1H-benzo[d]imidazole-1-carboxamide]
< 200 nM	26 µg/mL (≈ 60.7 µM)		CN1CC(N2CCN(c3cccc4c3ncn4C(=O)NCC#Cc3ccccc3)CC2)C1 [Example 333, 4-(4-(1-Methylazetidin-3-yl)piperazin-1-yl)-N-(3-phenylprop-2-yn-1-yl)-1H-benzo[d]imidazole-1-carboxamide]

IC50 ([1]; pH 4.5)	solubility [2]	IC50 [1, 3]	SMILES
< 200 nM	3 µg/mL (≈ 7.53 µM)		COc1nc2cc(F)c(N3CCOCC3)cc2n1C(=O)NCCc1ccccc1 [Example 334a, 5-Fluoro-2-methoxy-6-morpholino-N-(2-phenethyl)-1H-benzo[d]imidazole-1-carboxamide]
< 200 nM	5 µg/mL (≈ 12.5 µM)		COc1nc2cc(N3CCOCC3)c(F)cc2n1C(=O)NCCc1ccccc1 [Example 334b, 6-fluoro-2-methoxy-5-morpholino-N-(2-phenethyl)-1H-benzo[d]imidazole-1-carboxamide]
	1 µg/mL (≈ 2.41 µM)	< 200 nM	COc1nc2cc(F)c(N3CCOCC3)cc2n1C(=O)NCCOc1ccccc1 [Example 335a, 5-Fluoro-2-methoxy-6-morpholino-N-(2-phenoxyethyl)-1H-benzo[d]imidazole-1-carboxamide]
	7 µg/mL (≈ 16.9 µM)	< 200 nM	COc1nc2cc(N3CCOCC3)c(F)cc2n1C(=O)NCCOc1ccccc1 [Example 335b, 6-fluoro-2-methoxy-5-morpholino-N-(2-phenoxyethyl)-1H-benzo[d]imidazole-1-carboxamide]
	15 µg/mL (≈ 38.3 µM)	< 200 nM	CN1CCN(c2cccc3c2ncn3C(=O)NCC#Cc2ccc(F)cc2)CC1 [Example 336, N-(3-(4-Fluorophenyl)prop-2-yn-1-yl)-4-(4-methylpiperazin-1-yl)-1H-benzo[d]imidazole-1-carboxamide]
	15 µg/mL (≈ 38.3 µM)	< 200 nM	CN1CCN(c2cccc3c2ncn3C(=O)NCC#Cc2cccc(F)c2)CC1 [Example 337, N-(3-(3-Fluorophenyl)prop-2-yn-1-yl)-4-(4-methylpiperazin-1-yl)-1H-benzo[d]imidazole-1-carboxamide]
	18 µg/mL (≈ 46 µM)	< 200 nM	CN1CCN(c2cccc3c2ncn3C(=O)NCC#Cc2ccccc2F)CC1 [Example 338, N-(3-(2-Fluorophenyl)prop-2-yn-1-yl)-4-(4-methylpiperazin-1-yl)-1H-benzo[d]imidazole-1-carboxamide]
	16 µg/mL (≈ 39.7 µM)	< 200 nM	COc1ccc(C#CCNC(=O)n2cnc3c(N4CCN(C)CC4)cccc32)cc1 [Example 339, N-(3-(4-Methoxyphenyl)prop-2-yn-1-yl)-4-(4-methylpiperazin-1-yl)-1H-benzo[d]imidazole-1-carboxamide]
	13 µg/mL (≈ 32.2 µM)	< 200 nM	COc1cccc(C#CCNC(=O)n2cnc3c(N4CCN(C)CC4)cccc32)c1 [Example 340, N-(3-(3-Methoxyphenyl)prop-2-yn-1-yl)-4-(4-methylpiperazin-1-yl)-1H-benzo[d]imidazole-1-carboxamide]
	20 µg/mL (≈ 49.6 µM)	< 200 nM	COc1ccccc1C#CCNC(=O)n1cnc2c(N3CCN(C)CC3)cccc21 [Example 341, N-(3-(2-Methoxyphenyl)prop-2-yn-1-yl)-4-(4-methylpiperazin-1-yl)-1H-benzo[d]imidazole-1-carboxamide]
	4 µg/mL (≈ 10.7 µM)	< 200 nM	C#Cc1ccc(CNC(=O)n2cnc3c(N4CCN(C)CC4)cccc32)cc1 [Example 342, N-(4-Ethynylbenzyl)-4-(4-methylpiperazin-1-yl)-1H-benzo[d]imidazole-1-carboxamide]
	24 µg/mL (≈ 58.9 µM)	200 to 1000 nM	CN1CCN(CCOc2nc3ccccc3n2C(=O)NCCc2ccccc2)CC1 [Example 343]
	29 µg/mL (≈ 62.7 µM)	< 200 nM	CN1CCN(C2CN(c3cccc4c3ncn4C(=O)NCC(C)(C)Oc3ccccc3)C2)CC1 [Example 344, N-(2-Methyl-2-phenoxypropyl)-4-(3-(4-methylpiperazin-1-yl)azetidin-1-yl)-1H-benzo[d]imidazole-1-carboxamide]
	40 µg/mL (≈ 102 µM)	< 200 nM	CN1CCN(c2cccc3c2ncn3C(=O)NCC2Oc3ccccc3O2)CC1 [Example 345, N-(Benzo[d][1,3]dioxol-2-ylmethyl)-4-(4-methylpiperazin-1-yl)-1H-benzo[d]imidazole-1-carboxamide]
	11 µg/mL (≈ 28 µM)	< 200 nM	CN1CCN(c2cccc3c2ncn3C(=O)NCc2ccc3c(c2)OCO3)CC1 [Example 346, N-(Benzo[d][1,3]dioxol-5-ylmethyl)-4-(4-methylpiperazin-1-yl)-1H-benzo[d]imidazole-1-carboxamide]
	25 µg/mL (≈ 64.4 µM)	< 200 nM	CN1CCN(c2cccc3c2ncn3C(=O)NCc2ccn3cccc3c2)CC1 [Example 347, N-(Indolizin-7-ylmethyl)-4-(4-methylpiperazin-1-yl)-1H-benzo[d]imidazole-1-carboxamide]
